Values of other authors as cited in US20100173381A1, “CRYSTAL STRUCTURES OF HIV-1 PROTEASE INHIBITORS BOUND TO HIV-1 PROTEASE” (UNIVERSITY OF MASSACHUSETTS, priority 2006, published 2010).

Tests used:
[1] = test system: the virus in cell cultures
[2] = humans
[3] = target: HIV-1 protease (Human immunodeficiency virus type 1 group M subtype B, UniProt P04585)
[4] = test system: drug-resistant proteases
[5] = test system: HIV-1 protease mutants; conditions: M46I, T80I, P81S
[6] = test system: drug-resistant HIV-1; conditions: versus clinical protease inhibitors APV, LPV, ATV, SQV, IDV, NFV

Row | Compound | potency against the virus in cell cultures [1] | oral bioavailability [2] | inhibitory properties [3] | potency against drug-resistant proteases [4] | resistance of quadruple-viral mutant ([5]; K45R) | resistance of single-, double- or triple-viral mutants ([5]; mutants from K45R) | cross-resistance profile [6]
1 | Nc1cccc(CN2C(=O)N(Cc3cccc(N)c3)[C@H](Cc3ccccc3)[C@H](O)[C@@H](O)[C@H]2Cc2ccccc2)c1 [DMP-450] | highly potent | orally bioavailable | excellent inhibitory properties | – | – | – | –
2 | COC(=O)N[C@H](C(=O)NCCCC[C@@H](CO)N(CC(C)C)S(=O)(=O)c1ccc(N)cc1)C(c1ccccc1)c1ccccc1 [PL-100] | – | – | – | highly potent | only mild resistance | did not show resistance | favorable cross-resistance profile
